# Test results as given in doi:10.1101/2021.02.21.432137v1 (biorxiv, 2021).
# Columns and labels:
# Details in all cases: binder
# TYK2 = TYK2 (Homo sapiens, UniProt P29597)
# MAP3K15 = molecular target: T1, MAP3K15 (Homo sapiens, UniProt Q6ZN16)
# T1 sequence (Q6ZN16 1-1313): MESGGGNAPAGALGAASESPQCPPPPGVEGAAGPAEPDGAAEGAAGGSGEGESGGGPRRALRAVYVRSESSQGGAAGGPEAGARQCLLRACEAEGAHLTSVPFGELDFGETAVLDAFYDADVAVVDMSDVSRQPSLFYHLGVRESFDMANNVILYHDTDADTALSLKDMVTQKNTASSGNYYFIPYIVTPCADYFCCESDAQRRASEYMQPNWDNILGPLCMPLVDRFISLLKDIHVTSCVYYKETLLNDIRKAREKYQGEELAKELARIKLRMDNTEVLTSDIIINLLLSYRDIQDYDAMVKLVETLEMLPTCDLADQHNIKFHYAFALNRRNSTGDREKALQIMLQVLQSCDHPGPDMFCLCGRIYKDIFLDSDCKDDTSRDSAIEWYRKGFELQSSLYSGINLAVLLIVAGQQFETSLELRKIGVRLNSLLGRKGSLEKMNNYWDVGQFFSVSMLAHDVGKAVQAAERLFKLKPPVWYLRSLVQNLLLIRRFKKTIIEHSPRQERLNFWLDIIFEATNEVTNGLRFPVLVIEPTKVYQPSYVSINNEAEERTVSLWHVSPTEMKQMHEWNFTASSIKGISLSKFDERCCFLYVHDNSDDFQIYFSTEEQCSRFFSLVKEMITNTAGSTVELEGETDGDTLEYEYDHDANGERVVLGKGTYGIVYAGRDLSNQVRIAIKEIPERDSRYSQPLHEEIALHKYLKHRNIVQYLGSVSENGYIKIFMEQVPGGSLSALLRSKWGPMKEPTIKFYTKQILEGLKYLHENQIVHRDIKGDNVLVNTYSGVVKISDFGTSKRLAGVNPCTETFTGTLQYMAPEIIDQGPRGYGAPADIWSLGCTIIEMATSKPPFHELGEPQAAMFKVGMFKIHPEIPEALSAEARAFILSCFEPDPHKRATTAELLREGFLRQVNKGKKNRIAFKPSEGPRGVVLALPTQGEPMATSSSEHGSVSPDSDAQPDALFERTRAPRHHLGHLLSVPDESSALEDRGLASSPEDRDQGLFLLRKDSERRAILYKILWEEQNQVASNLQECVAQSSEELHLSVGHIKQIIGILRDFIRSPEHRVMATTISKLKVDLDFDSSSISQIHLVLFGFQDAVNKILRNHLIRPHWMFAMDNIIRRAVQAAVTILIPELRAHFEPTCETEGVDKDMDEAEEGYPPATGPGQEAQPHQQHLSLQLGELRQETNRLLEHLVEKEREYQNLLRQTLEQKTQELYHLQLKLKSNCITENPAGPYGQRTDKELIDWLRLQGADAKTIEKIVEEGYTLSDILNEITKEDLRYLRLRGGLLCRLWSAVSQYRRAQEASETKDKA
# NUAK2 = molecular target: T2, NUAK2 (Homo sapiens, UniProt Q9H093)
# T2 sequence (Q9H093 1-628): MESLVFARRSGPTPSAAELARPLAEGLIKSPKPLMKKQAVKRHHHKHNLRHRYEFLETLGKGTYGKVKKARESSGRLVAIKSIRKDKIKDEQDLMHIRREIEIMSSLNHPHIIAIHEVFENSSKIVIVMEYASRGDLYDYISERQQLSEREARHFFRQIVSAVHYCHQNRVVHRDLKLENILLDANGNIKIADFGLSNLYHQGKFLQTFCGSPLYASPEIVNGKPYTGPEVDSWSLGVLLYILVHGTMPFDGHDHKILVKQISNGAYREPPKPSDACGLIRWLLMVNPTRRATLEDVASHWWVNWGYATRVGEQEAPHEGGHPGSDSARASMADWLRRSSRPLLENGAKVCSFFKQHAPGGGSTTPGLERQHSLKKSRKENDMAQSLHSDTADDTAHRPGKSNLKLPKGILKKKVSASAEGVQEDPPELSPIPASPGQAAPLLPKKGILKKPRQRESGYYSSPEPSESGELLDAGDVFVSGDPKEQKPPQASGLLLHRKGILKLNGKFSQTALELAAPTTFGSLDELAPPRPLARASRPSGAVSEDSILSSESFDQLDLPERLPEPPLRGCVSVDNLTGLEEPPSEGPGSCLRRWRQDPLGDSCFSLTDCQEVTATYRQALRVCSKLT
# RIOK2 = RIOK2 (Homo sapiens, UniProt Q9BVS4)
# JAK2 = JAK2 (Homo sapiens, UniProt O60674)
# JAK2, sequence (O60674 whole entry): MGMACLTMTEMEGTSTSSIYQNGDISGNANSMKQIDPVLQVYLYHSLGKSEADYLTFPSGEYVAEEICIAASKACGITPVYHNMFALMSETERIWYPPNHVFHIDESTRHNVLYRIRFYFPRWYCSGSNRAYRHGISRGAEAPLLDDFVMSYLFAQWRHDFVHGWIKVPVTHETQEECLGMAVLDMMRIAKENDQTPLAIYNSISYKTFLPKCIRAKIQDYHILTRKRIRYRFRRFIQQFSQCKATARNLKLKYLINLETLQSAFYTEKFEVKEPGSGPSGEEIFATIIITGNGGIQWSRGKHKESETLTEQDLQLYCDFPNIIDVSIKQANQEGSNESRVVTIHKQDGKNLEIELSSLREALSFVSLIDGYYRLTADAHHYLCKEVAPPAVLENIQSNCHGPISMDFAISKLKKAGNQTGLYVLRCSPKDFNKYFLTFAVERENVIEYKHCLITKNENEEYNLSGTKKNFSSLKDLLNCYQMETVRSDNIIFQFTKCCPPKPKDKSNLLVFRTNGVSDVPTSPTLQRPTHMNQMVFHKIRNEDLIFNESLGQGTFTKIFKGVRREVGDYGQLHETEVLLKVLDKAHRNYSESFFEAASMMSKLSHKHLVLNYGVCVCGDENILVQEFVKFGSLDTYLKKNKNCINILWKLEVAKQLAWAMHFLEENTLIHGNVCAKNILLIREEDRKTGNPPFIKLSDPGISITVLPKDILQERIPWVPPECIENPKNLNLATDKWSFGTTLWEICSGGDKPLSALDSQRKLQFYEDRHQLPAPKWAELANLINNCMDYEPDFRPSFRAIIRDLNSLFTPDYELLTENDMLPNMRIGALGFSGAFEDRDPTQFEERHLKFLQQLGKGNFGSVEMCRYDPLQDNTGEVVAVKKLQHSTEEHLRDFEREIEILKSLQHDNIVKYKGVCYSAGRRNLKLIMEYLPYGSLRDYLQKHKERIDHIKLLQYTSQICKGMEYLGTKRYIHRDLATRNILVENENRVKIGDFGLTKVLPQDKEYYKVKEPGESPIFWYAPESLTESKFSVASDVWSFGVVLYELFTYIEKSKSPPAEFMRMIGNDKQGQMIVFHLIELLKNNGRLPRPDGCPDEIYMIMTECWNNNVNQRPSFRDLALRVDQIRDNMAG
# BMPR1B = BMPR1B (Homo sapiens, UniProt O00238)
# STK3 (MST2) = molecular target: T3, STK3 (MST2) (Homo sapiens, UniProt Q13188)
# T3 sequence (Q13188 1-491): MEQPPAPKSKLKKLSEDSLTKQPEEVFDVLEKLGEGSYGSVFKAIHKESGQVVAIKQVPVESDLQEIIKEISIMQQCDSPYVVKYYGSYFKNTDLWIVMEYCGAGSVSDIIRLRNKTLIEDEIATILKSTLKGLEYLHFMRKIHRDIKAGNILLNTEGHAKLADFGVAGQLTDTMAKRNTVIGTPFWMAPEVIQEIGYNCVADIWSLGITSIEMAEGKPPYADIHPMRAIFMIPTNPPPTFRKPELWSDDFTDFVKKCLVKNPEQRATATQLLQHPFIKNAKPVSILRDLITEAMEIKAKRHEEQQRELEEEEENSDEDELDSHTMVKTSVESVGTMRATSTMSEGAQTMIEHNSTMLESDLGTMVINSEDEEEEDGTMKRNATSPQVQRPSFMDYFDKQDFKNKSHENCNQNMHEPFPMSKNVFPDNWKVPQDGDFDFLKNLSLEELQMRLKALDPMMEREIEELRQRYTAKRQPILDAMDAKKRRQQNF
# LRRK2 = LRRK2 (Homo sapiens, UniProt Q5S007)
# LRRK2, sequence (Q5S007 whole entry): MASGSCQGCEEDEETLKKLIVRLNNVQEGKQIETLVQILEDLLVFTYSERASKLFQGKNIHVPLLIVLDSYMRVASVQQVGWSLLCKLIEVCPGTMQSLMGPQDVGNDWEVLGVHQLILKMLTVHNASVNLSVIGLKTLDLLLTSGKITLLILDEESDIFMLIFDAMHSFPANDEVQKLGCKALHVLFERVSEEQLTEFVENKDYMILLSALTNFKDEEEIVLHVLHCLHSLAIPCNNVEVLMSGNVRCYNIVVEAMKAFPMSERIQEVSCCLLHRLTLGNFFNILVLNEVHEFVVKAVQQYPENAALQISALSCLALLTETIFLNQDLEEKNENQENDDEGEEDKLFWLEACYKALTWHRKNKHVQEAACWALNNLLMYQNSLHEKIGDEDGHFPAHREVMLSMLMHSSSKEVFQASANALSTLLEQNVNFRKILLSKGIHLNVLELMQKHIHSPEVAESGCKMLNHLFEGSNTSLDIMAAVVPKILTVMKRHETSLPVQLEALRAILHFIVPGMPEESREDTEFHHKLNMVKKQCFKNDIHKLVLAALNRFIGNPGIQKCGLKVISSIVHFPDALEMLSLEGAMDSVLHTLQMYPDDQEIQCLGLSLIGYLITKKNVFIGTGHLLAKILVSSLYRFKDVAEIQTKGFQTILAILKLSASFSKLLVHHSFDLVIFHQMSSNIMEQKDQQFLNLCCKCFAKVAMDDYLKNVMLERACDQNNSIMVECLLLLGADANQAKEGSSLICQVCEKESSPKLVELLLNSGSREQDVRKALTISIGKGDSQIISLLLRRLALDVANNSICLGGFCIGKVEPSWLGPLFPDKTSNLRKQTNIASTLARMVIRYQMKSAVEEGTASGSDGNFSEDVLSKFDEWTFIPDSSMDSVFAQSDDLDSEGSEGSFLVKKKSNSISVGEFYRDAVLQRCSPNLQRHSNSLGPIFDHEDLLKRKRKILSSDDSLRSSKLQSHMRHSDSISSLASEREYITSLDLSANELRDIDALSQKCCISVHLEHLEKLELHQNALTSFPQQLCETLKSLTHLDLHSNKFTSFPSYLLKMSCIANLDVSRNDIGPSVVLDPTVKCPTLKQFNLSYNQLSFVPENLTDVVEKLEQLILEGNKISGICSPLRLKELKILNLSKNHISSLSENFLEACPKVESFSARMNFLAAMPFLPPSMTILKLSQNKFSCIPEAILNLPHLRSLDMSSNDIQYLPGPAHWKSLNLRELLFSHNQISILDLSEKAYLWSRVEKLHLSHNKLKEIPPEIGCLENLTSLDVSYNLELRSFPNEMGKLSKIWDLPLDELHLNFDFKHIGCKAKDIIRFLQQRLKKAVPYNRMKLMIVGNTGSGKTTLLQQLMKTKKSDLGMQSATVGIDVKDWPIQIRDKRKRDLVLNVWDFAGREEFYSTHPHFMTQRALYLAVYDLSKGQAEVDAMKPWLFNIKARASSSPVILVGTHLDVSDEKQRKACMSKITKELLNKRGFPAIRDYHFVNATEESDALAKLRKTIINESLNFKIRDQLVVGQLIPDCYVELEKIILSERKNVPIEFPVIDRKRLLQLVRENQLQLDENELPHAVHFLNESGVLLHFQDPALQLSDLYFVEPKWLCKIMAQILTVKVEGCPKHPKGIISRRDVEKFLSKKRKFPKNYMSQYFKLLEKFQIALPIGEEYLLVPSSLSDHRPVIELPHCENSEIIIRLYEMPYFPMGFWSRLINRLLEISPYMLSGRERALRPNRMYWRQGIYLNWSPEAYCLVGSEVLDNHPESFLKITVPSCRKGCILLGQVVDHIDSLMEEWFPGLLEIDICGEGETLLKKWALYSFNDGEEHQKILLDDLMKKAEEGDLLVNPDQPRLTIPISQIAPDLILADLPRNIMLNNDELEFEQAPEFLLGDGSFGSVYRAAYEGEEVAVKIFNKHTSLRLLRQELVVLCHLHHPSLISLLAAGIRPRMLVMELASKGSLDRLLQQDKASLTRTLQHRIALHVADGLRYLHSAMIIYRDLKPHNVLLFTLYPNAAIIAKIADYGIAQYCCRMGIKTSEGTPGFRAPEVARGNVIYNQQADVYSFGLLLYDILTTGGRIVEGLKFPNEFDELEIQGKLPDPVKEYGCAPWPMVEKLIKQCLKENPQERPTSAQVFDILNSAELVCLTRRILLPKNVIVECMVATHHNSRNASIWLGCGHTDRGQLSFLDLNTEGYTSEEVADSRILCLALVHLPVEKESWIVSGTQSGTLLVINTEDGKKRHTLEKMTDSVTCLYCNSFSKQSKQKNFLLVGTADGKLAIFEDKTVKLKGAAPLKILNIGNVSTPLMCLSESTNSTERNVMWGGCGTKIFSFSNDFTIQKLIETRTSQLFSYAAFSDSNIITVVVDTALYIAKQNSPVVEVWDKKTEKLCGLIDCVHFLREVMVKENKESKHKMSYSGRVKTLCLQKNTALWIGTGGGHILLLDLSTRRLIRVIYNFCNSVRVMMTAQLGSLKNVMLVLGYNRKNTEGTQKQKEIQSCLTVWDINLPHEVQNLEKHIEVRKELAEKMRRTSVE
# TYK2, sequence (P29597 whole entry): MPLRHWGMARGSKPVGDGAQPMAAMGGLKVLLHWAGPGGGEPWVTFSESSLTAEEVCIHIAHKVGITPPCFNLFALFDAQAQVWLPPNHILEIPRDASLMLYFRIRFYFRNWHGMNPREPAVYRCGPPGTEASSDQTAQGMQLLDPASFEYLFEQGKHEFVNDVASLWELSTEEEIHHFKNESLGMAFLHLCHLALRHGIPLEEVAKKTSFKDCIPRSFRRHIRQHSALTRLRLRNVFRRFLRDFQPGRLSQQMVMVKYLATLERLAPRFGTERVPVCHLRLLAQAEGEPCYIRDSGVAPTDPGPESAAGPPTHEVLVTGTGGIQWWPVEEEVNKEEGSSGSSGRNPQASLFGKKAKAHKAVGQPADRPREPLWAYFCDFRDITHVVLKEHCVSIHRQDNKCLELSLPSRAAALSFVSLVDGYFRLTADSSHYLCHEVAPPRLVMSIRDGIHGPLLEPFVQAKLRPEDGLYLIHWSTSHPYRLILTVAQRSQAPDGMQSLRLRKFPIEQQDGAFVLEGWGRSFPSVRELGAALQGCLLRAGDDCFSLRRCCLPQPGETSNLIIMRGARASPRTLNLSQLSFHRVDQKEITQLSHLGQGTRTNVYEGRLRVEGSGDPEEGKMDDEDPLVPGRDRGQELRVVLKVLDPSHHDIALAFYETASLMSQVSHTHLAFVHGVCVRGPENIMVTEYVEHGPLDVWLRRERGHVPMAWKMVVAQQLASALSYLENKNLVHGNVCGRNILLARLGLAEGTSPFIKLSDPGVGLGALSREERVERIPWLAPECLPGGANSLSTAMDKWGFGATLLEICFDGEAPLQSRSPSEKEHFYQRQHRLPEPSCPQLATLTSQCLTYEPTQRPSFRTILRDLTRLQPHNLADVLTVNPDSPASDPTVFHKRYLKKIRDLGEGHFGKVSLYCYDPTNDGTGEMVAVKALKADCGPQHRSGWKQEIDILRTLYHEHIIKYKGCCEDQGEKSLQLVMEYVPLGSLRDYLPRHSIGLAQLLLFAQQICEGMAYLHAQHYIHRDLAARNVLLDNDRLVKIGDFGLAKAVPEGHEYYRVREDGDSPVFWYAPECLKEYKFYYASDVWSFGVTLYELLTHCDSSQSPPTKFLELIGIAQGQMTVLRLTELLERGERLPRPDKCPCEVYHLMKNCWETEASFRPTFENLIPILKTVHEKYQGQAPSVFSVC
structure (smiles),measurement,setting,value
"C[C@H](NC(=O)c1c[nH]c2ncc(C3CC3)nc12)C(C)(C)C [A1, UNC-BE4-017]",Compound A1 PoC,TYK2,6.9%
same,Compound A1 PoC,MAP3K15,0%
same,Compound A1 PoC,NUAK2,1.2%
same,Compound A1 PoC,RIOK2,0%
same,Compound A1 PoC,JAK2,0.4%
same,Compound A1 PoC,BMPR1B,1.8%
same,Compound A1 PoC,STK3 (MST2),0%
same,Compound A1 PoC,LRRK2,2.1%
